Experimental data reported in patent US20240251788A1, “HERBICIDE/SAFENER COMBINATION BASED ON SAFENERS FROM THE CLASS OF SUBSTITUTED [(1,5-DIPHENYL-1H-1,2,4-TRIAZOL-3-YL)OXY]ACETIC ACIDS AND THEIR SALTS” (Bayer Aktiengesellschaft, priority 2021, published 2024).

Experiments:
[1] = tested on: summer barley crop plant (HORVS: cv. Quench); assay: Reduction in herbicide damage to summer barley by safener, greenhouse post-emergence application, visual scoring; format: in vivo; set-up: key to Reduction in the damage by safener (difference): difference in % visual damage, 0-100% scale vs untreated plants; conditions: summer barley (HORVS)
Experimental: (§1) The seeds of the crop plants to be treated are laid out in soil in woodfiber pots (diameter ˜ 7 cm), covered with soil and grown in a greenhouse under good conditions for germination and growth. The trial plants were treated at the early leaf stage (BBCH10-BBCH12).
The herbicides used (component B) were used in the following formulations: • B2.81: WP • B2.85: WP • B2.92: WP • Clomazone: WP • Ethofumesate: WP • Flufenacet: SC • Fluroxypyr: EC • Saflufenacil: WP • Thiencarbazone-methyl: WP • Iodosulfuron-methyl-sodium: WP • Bifenox: WP • Glyphosate potassium salt: SL • Topramezone: WP
(§2) The dose of the respective herbicides was chosen here such that it causes an average degree of visually apparent damage (min. 20%, max. 75%) compared to untreated crop plants at the evaluation time on a control group of crop plants without safener treatment that were included in the same trial.
(§3) In the respective herbicide/safener combinations, the safeners (component A) in the form of wettable powders (WP) were added in the dose specified; in these cases, herbicide and safener are thus applied as a mixture.
(§4) Application was effected in each case on to the above-ground parts of the plant, at a water application rate corresponding to 300 l/ha and with addition of wetting agent (Mero, 1.5 l/h a).
In the applications that contained pinoxaden or topramezone, the herbicidal effect was enhanced by additionally adding ammonium sulfate (2 kg/ha).
(§5) After application, the plants were cultivated under good growth conditions in a greenhouse. On account of the different mechanisms of action of the herbicides used, the damaging effect of the herbicides was fully manifested at different times depending on the herbicide, and this in turn forms the basis for assessment of the safener action in the mixtures. Therefore, the damage was scored visually, depending on the herbicide/mixture, between 11 and 21 days after application.
(§6) The damage effect was assessed visually on a scale of 0-100% by comparison with untreated control plants, and averaged over 2 repeats per treatment.

[2] = tested on: summer wheat crop plant (TRZAS; cv. Triso); assay: Reduction in herbicide damage to summer wheat by safener, greenhouse post-emergence application, visual scoring; format: in vivo; set-up: key to Reduction in the damage by safener (difference): difference in % visual damage (0-100% scale vs untreated) due to safener; conditions: summer wheat (TRZAS)
Experimental: as §1
The herbicides used (component B) were used in the following formulations: • B2.81: WP • B2.85: WP • B2.92: WP • Cinmethylin: EC • Clomazone: WP • Ethofumesate: WP • Flufenacet: SC • Pinoxaden: WP • Saflufenacil: WP • Bicyclopyrone: WP • Picloram: WP • Metazachlor: SC • Flumioxazin: WP • Glyphosate potassium salt: SL • Topramezone: WP
as §2, §3, §4
In the applications that contained pinoxaden, bicyclopyrone or topramezone, the herbicidal effect was enhanced by additionally adding ammonium sulfate (2 kg/ha).
as §5, §6

[3] = herbicide B2.28 (flufenacet) 2000 g a.i./ha + safener 100 g a.i./ha
[4] = herbicide B2.28 (flufenacet) 4000 g a.i./ha + safener 100 g a.i./ha
[5] = herbicide B2.34 (iodosulfuron) 10 g a.i./ha + safener 100 g a.i./ha
[6] = herbicide B2.68 (thiencarbazone-methyl) 30 g a.i./ha + safener 100 g a.i./ha
[7] = herbicide B2.81 15 g a.i./ha + safener 100 g a.i./ha
[8] = herbicide B2.85 5 g a.i./ha + safener 100 g a.i./ha
[9] = herbicide B2.92 5 g a.i./ha + safener 100 g a.i./ha
[10] = herbicide B4.28 (topramezone) 300 g a.i./ha + safener 100 g a.i./ha
[11] = herbicide B5.21 (ethofumesate) 2000 g a.i./ha + safener 100 g a.i./ha
[12] = herbicide B6.4 (fluroxypyr) 500 g a.i./ha + safener 100 g a.i./ha
[13] = herbicide B7.5 (glyphosate) 400 g a.i./ha + safener 100 g a.i./ha
[14] = herbicide B8.6 (bifenox) 600 g a.i./ha + safener 100 g a.i./ha
[15] = herbicide B1.2 (bicyclopyrone) 400 g a.i./ha + safener 100 g a.i./ha
[16] = herbicide B1.8 (pinoxaden) 200 g a.i./ha + safener 100 g a.i./ha
[17] = herbicide B2.38 (metazachlor) 4000 g a.i./ha + safener 100 g a.i./ha
[18] = herbicide B5.13 (cinmethylin) 500 g a.i./ha + safener 100 g a.i./ha
[19] = herbicide B5.13 (cinmethylin) 1000 g a.i./ha + safener 100 g a.i./ha
[20] = herbicide B5.14 (clomazone) 200 g a.i./ha + safener 100 g a.i./ha
[21] = herbicide B5.26 (flumioxazin) 20 g a.i./ha + safener 100 g a.i./ha
[22] = herbicide B6.5 (picloram) 400 g a.i./ha + safener 100 g a.i./ha
[23] = herbicide B9.10 (saflufenacil) 20 g a.i./ha + safener 100 g a.i./ha

COC(=O)COc1nc(-c2ccc(Cl)cc2F)n(-c2ccc(F)cc2F)n1 [Compound A3, methyl {[5-(4-chloro-2-fluorophenyl)-1-(2,4-difluorophenyl)-1H-1,2,4-triazol-3-yl]oxy}acetate]
Reduction in the damage by safener (difference) [1, 3]: 15 | Reduction in the damage by safener (in %) [1, 3]: 50% | Reduction in the damage by safener (difference) [1, 4]: 35 | Reduction in the damage by safener (in %) [1, 4]: 70% | Reduction in the damage by safener (difference) [1, 5]: 25 | Reduction in the damage by safener (in %) [1, 5]: 56% | Reduction in the damage by safener (difference) [1, 6]: 30 | Reduction in the damage by safener (in %) [1, 6]: 100% | Reduction in the damage by safener (difference) [1, 7]: 70 | Reduction in the damage by safener (in %) [1, 7]: 100% | Reduction in the damage by safener (difference) [1, 8]: 15 | Reduction in the damage by safener (in %) [1, 8]: 25% | Reduction in the damage by safener (difference) [1, 9]: 30 | Reduction in the damage by safener (in %) [1, 9]: 46% | Reduction in the damage by safener (difference) [1, 10]: 40 | Reduction in the damage by safener (in %) [1, 10]: 80% | Reduction in the damage by safener (difference) [1, 11]: 60 | Reduction in the damage by safener (in %) [1, 11]: 100% | Reduction in the damage by safener (difference) [1, 12]: 20 | Reduction in the damage by safener (in %) [1, 12]: 100% | Reduction in the damage by safener (difference) [1, 13]: 50 | Reduction in the damage by safener (in %) [1, 13]: 83% | Reduction in the damage by safener (difference) [1, 14]: 35 | Reduction in the damage by safener (in %) [1, 14]: 88% | Reduction in the damage by safener (difference) [2, 15]: 25 | Reduction in the damage by safener (in %) [2, 15]: 42% | Reduction in the damage by safener (difference) [2, 16]: 15 | Reduction in the damage by safener (in %) [2, 16]: 43% | Reduction in the damage by safener (difference) [2, 3]: 30 | Reduction in the damage by safener (in %) [2, 3]: 100% | Reduction in the damage by safener (difference) [2, 4]: 40 | Reduction in the damage by safener (in %) [2, 4]: 100% | Reduction in the damage by safener (difference) [2, 17]: 30 | Reduction in the damage by safener (in %) [2, 17]: 75% | Reduction in the damage by safener (difference) [2, 7]: 15 | Reduction in the damage by safener (in %) [2, 7]: 21% | Reduction in the damage by safener (difference) [2, 10]: 20 | Reduction in the damage by safener (in %) [2, 10]: 50% | Reduction in the damage by safener (difference) [2, 18]: 25 | Reduction in the damage by safener (in %) [2, 18]: 100% | Reduction in the damage by safener (difference) [2, 19]: 25 | Reduction in the damage by safener (in %) [2, 19]: 100% | Reduction in the damage by safener (difference) [2, 20]: 15 | Reduction in the damage by safener (in %) [2, 20]: 38% | Reduction in the damage by safener (difference) [2, 11]: 70 | Reduction in the damage by safener (in %) [2, 11]: 100% | Reduction in the damage by safener (difference) [2, 21]: 25 | Reduction in the damage by safener (in %) [2, 21]: 42% | Reduction in the damage by safener (difference) [2, 22]: 20 | Reduction in the damage by safener (in %) [2, 22]: 80% | Reduction in the damage by safener (difference) [2, 13]: 35 | Reduction in the damage by safener (in %) [2, 13]: 78%

COC(=O)COc1nc(-c2ccc(F)cc2F)n(-c2ccc(Cl)cc2F)n1 [Compound A5, methyl {[1-(4-chloro-2-fluorophenyl)-5-(2,4-difluorophenyl)-1H-1,2,4-triazol-3-yl]oxy}acetate]
Reduction in the damage by safener (difference) [1, 6]: 30 | Reduction in the damage by safener (in %) [1, 6]: 100% | Reduction in the damage by safener (difference) [1, 7]: 20 | Reduction in the damage by safener (in %) [1, 7]: 29% | Reduction in the damage by safener (difference) [1, 8]: 40 | Reduction in the damage by safener (in %) [1, 8]: 67% | Reduction in the damage by safener (difference) [1, 9]: 50 | Reduction in the damage by safener (in %) [1, 9]: 77% | Reduction in the damage by safener (difference) [1, 11]: 60 | Reduction in the damage by safener (in %) [1, 11]: 100% | Reduction in the damage by safener (difference) [1, 12]: 15 | Reduction in the damage by safener (in %) [1, 12]: 75% | Reduction in the damage by safener (difference) [1, 23]: 15 | Reduction in the damage by safener (in %) [1, 23]: 38% | Reduction in the damage by safener (difference) [2, 16]: 20 | Reduction in the damage by safener (in %) [2, 16]: 57% | Reduction in the damage by safener (difference) [2, 7]: 20 | Reduction in the damage by safener (in %) [2, 7]: 29% | Reduction in the damage by safener (difference) [2, 8]: 50 | Reduction in the damage by safener (in %) [2, 8]: 83% | Reduction in the damage by safener (difference) [2, 9]: 55 | Reduction in the damage by safener (in %) [2, 9]: 92% | Reduction in the damage by safener (difference) [2, 20]: 15 | Reduction in the damage by safener (in %) [2, 20]: 38% | Reduction in the damage by safener (difference) [2, 11]: 70 | Reduction in the damage by safener (in %) [2, 11]: 100%
